Results published in ChEMBL document CHEMBL4265965, “Dichloroacetophenones targeting at pyruvate dehydrogenase kinase 1 with improved selectivity and antiproliferative activity: Synthesis and structure-activity relationships” (Bioorg Med Chem Lett, 2018).
Active and inactive are the calls of the source. The calls are words filed in the database; no cut-off is given here.

How the values were obtained:
NCI-H1975 [1] = test: Antiproliferative activity against human NCI-H1975 cells assessed as inhibition of cell proliferation at 12 uM after 72 hrs by MTT assay relative to control; format: functional; settings: NCI-H1975, 72 h
NCI-H1975 [2] = test: Antiproliferative activity against human NCI-H1975 cells assessed as inhibition of cell proliferation at 6 uM after 72 hrs by MTT assay relative to control; format: functional; settings: NCI-H1975, 72 h
NCI-H1975 [3] = test: Antiproliferative activity against human NCI-H1975 cells assessed as inhibition of cell proliferation at 2 uM after 72 hrs by MTT assay relative to control; format: functional; settings: NCI-H1975, 72 h
NCI-H1650 [4] = test: Antiproliferative activity against human NCI-H1650 cells assessed as inhibition of cell proliferation at 12 uM after 72 hrs by MTT assay relative to control; format: functional; settings: NCI-H1650, 72 h
NCI-H1650 [5] = test: Antiproliferative activity against human NCI-H1650 cells assessed as inhibition of cell proliferation at 6 uM after 72 hrs by MTT assay relative to control; format: functional; settings: NCI-H1650, 72 h
NCI-H1650 [6] = test: Antiproliferative activity against human NCI-H1650 cells assessed as inhibition of cell proliferation at 2 uM after 72 hrs by MTT assay relative to control; format: functional; settings: NCI-H1650, 72 h
A549 [7] = test: Antiproliferative activity against human A549 cells assessed as inhibition of cell proliferation at 12 uM after 72 hrs by MTT assay relative to control; format: functional; settings: A549, 72 h
A549 [8] = test: Antiproliferative activity against human A549 cells assessed as inhibition of cell proliferation at 6 uM after 72 hrs by MTT assay relative to control; format: functional; settings: A549, 72 h
A549 [9] = test: Antiproliferative activity against human A549 cells assessed as inhibition of cell proliferation at 2 uM after 72 hrs by MTT assay relative to control; format: functional; settings: A549, 72 h
NCI-H1975 [10] = test: Antiproliferative activity against human NCI-H1975 cells assessed as inhibition of cell proliferation after 72 hrs by MTT assay; format: functional, cell-based; settings: NCI-H1975, 72 h
[11] = molecular target: T1, [Pyruvate dehydrogenase (acetyl-transferring)] kinase isozyme 1, mitochondrial (Homo sapiens, UniProt Q15118); test: Inhibition of recombinant human N-terminal His6/Sumo-tagged PDK1 (29 to 436 residues) expressed in Escherichia coli BL21 at 1 uM by kinase-glo luminescence assay relative to control
T1 sequence (Q15118 whole entry, the tested form may be a part): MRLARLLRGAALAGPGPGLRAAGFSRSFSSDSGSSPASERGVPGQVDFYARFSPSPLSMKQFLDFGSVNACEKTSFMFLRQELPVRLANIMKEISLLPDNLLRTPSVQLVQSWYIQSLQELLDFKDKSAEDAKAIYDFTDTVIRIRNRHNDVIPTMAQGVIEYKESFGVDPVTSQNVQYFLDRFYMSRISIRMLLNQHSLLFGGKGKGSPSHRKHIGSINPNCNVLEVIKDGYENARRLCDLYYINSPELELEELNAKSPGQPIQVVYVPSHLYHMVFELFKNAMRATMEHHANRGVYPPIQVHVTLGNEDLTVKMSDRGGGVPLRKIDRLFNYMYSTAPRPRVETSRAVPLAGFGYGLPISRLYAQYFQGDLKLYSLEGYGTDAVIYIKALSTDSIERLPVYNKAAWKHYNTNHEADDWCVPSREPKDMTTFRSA

[12] = molecular target: T1, [Pyruvate dehydrogenase (acetyl-transferring)] kinase isozyme 1, mitochondrial; test: Inhibition of PDK1 in human NCI-H1975 cells assessed as reduction in pyruvate dehydrogenase phosphorylation at 10 uM after 24 hrs by Western blot analysis; format: cell-based
[13] = molecular target: Epidermal growth factor receptor (Homo sapiens, UniProt P00533); test: Inhibition of EGFR phosphorylation in human NCI-H1975 cells at 10 uM after 24 hrs by Western blot analysis; format: cell-based; settings: nci-h1975, 24 h
Epidermal growth factor receptor, sequence (P00533 whole entry): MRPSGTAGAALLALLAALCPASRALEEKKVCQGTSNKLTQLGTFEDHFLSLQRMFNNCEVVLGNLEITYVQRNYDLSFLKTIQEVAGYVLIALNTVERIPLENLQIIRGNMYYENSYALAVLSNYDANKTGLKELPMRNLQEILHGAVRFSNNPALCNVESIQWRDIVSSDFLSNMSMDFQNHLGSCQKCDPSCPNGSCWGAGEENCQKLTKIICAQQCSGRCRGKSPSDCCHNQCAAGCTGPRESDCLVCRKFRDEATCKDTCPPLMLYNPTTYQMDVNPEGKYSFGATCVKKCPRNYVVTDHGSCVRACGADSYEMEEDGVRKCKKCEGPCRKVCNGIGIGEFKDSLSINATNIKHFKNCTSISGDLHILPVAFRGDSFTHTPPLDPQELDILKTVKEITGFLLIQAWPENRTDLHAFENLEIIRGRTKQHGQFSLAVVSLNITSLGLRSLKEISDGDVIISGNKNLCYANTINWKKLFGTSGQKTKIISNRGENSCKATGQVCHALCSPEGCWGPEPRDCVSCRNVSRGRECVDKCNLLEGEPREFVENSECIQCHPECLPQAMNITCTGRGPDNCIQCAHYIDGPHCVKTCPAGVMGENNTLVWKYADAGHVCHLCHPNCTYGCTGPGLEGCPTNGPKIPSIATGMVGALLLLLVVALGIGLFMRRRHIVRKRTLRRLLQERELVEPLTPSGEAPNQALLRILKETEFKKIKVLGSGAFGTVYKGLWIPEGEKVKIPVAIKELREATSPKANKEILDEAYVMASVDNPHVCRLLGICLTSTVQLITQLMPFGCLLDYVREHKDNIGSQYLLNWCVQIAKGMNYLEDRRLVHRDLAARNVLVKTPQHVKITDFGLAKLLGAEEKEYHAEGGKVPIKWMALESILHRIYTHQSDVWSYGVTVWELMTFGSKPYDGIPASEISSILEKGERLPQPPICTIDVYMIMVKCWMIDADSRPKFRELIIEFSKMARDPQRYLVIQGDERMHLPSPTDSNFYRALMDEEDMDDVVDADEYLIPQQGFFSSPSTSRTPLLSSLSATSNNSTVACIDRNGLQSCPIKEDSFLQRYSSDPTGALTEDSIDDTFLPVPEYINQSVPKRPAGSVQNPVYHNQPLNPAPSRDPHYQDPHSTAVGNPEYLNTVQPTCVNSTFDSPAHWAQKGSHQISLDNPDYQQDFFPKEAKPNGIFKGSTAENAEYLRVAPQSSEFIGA

[14] = molecular target: RAC-alpha serine/threonine-protein kinase (Homo sapiens, UniProt P31749); test: Inhibition of AKT phosphorylation in human NCI-H1975 cells at 10 uM after 24 hrs by Western blot analysis; format: cell-based; settings: nci-h1975, 24 h
RAC-alpha serine/threonine-protein kinase, sequence (P31749 whole entry): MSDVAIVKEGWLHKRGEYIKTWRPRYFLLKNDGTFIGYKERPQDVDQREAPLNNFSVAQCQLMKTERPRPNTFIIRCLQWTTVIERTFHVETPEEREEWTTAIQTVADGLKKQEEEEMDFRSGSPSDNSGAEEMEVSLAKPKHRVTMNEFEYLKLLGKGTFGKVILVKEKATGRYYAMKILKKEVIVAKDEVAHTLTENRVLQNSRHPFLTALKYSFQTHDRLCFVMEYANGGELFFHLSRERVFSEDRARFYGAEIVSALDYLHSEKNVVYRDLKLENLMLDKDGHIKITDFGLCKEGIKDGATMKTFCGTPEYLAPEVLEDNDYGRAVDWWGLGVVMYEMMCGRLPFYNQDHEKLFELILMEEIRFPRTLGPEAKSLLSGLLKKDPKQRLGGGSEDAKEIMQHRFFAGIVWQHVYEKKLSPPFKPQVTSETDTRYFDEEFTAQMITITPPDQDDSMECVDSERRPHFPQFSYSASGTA

[15] = Inhibition of ERK phosphorylation in human NCI-H1975 cells at 10 uM after 24 hrs by Western blot analysis; format: cell-based; settings: nci-h1975, 24 h
[16] = molecular target: T1, [Pyruvate dehydrogenase (acetyl-transferring)] kinase isozyme 1, mitochondrial; test: Binding affinity to recombinant human N-terminal His6/Sumo-tagged PDK1 (29 to 436 residues) expressed in Escherichia coli BL21
[17] = molecular target: T1, [Pyruvate dehydrogenase (acetyl-transferring)] kinase isozyme 1, mitochondrial; test: Inhibition of PDK1 in human NCI-H1975 cells assessed as switch of pyruvate metabolism from lactate production to oxidative phosphorylation by measuring decrease in extracellular acidification rate at 10 uM pretreated for 4 hrs followed by glucose addition for 1 hr measured for 16 mins; format: cell-based
[18] = molecular target: T1, [Pyruvate dehydrogenase (acetyl-transferring)] kinase isozyme 1, mitochondrial; test: Inhibition of PDK1 in human NCI-H1975 cells assessed as switch of pyruvate metabolism from lactate production to oxidative phosphorylation by measuring decrease in extracellular acidification rate at 10 uM pretreated for 4 hrs followed by oligomycin addition for 1 hr measured for 16 mins; format: cell-based
[19] = molecular target: T1, [Pyruvate dehydrogenase (acetyl-transferring)] kinase isozyme 1, mitochondrial; test: Inhibition of PDK1 in human NCI-H1975 cells assessed as switch of pyruvate metabolism from lactate production to oxidative phosphorylation by measuring decrease in extracellular acidification rate at 10 uM pretreated for 4 hrs followed by 2DG addition for 1 hr measured for 16 mins; format: cell-based
[20] = molecular target: T1, [Pyruvate dehydrogenase (acetyl-transferring)] kinase isozyme 1, mitochondrial; test: Inhibition of PDK1 in human NCI-H1975 cells assessed as switch of pyruvate metabolism from lactate production to oxidative phosphorylation by measuring increase in basal oxygen consumption rate at 10 uM incubated for 4 hrs measured for 16 mins; format: cell-based
[21] = molecular target: T1, [Pyruvate dehydrogenase (acetyl-transferring)] kinase isozyme 1, mitochondrial; test: Inhibition of PDK1 in human NCI-H1975 cells assessed as switch of pyruvate metabolism from lactate production to oxidative phosphorylation by measuring increase in basal oxygen consumption rate at 10 uM incubated for 4 hrs followed by oligomycin addition for 1 hr measured for 16 mins; format: cell-based
[22] = molecular target: T1, [Pyruvate dehydrogenase (acetyl-transferring)] kinase isozyme 1, mitochondrial; test: Inhibition of PDK1 in human NCI-H1975 cells assessed as switch of pyruvate metabolism from lactate production to oxidative phosphorylation by measuring increase in basal oxygen consumption rate at 10 uM incubated for 4 hrs followed by FCCP addition for 1 hr measured for 16 mins; format: cell-based
[23] = molecular target: T1, [Pyruvate dehydrogenase (acetyl-transferring)] kinase isozyme 1, mitochondrial; test: Inhibition of PDK1 in human NCI-H1975 cells assessed as switch of pyruvate metabolism from lactate production to oxidative phosphorylation by measuring increase in basal oxygen consumption rate at 10 uM incubated for 4 hrs followed by antimycinA addition for 1 hr measured for 16 mins; format: cell-based
Sus scrofa [24] = organism: Sus scrofa; test: Inhibition of porcine PDK1 assessed as activation of pyruvate dehydrogenase complex at 1 uM measured after 3 mins
Sus scrofa [25] = organism: Sus scrofa; test: Inhibition of porcine PDK1 assessed as activation of pyruvate dehydrogenase complex at 80 uM measured after 3 mins relative to control
[26] = molecular target: T1, [Pyruvate dehydrogenase (acetyl-transferring)] kinase isozyme 1, mitochondrial; test: Inhibition of PDK1 in human NCI-H1975 cells assessed as switch of pyruvate metabolism from lactate production to oxidative phosphorylation by measuring decrease in extracellular acidification rate at 20 uM pretreated for 4 hrs followed by glucose addition for 1 hr measured for 16 mins; format: cell-based
[27] = molecular target: T1, [Pyruvate dehydrogenase (acetyl-transferring)] kinase isozyme 1, mitochondrial; test: Inhibition of PDK1 in human NCI-H1975 cells assessed as switch of pyruvate metabolism from lactate production to oxidative phosphorylation by measuring decrease in extracellular acidification rate at 20 uM pretreated for 4 hrs followed by oligomycin addition for 1 hr measured for 16 mins; format: cell-based
[28] = molecular target: T1, [Pyruvate dehydrogenase (acetyl-transferring)] kinase isozyme 1, mitochondrial; test: Inhibition of PDK1 in human NCI-H1975 cells assessed as switch of pyruvate metabolism from lactate production to oxidative phosphorylation by measuring decrease in extracellular acidification rate at 20 uM pretreated for 4 hrs followed by 2DG addition for 1 hr measured for 16 mins; format: cell-based
[29] = molecular target: T1, [Pyruvate dehydrogenase (acetyl-transferring)] kinase isozyme 1, mitochondrial; test: Inhibition of PDK1 in human NCI-H1975 cells assessed as switch of pyruvate metabolism from lactate production to oxidative phosphorylation by measuring increase in basal oxygen consumption rate at 20 uM incubated for 4 hrs measured for 16 mins; format: cell-based
[30] = molecular target: T1, [Pyruvate dehydrogenase (acetyl-transferring)] kinase isozyme 1, mitochondrial; test: Inhibition of PDK1 in human NCI-H1975 cells assessed as switch of pyruvate metabolism from lactate production to oxidative phosphorylation by measuring increase in basal oxygen consumption rate at 20 uM incubated for 4 hrs followed by oligomycin addition for 1 hr measured for 16 mins; format: cell-based
[31] = molecular target: T1, [Pyruvate dehydrogenase (acetyl-transferring)] kinase isozyme 1, mitochondrial; test: Inhibition of PDK1 in human NCI-H1975 cells assessed as switch of pyruvate metabolism from lactate production to oxidative phosphorylation by measuring increase in basal oxygen consumption rate at 20 uM incubated for 4 hrs followed by FCCP addition for 1 hr measured for 16 mins; format: cell-based
[32] = molecular target: T1, [Pyruvate dehydrogenase (acetyl-transferring)] kinase isozyme 1, mitochondrial; test: Inhibition of PDK1 in human NCI-H1975 cells assessed as switch of pyruvate metabolism from lactate production to oxidative phosphorylation by measuring increase in basal oxygen consumption rate at 20 uM incubated for 4 hrs followed by antimycinA addition for 1 hr measured for 16 mins; format: cell-based

Compound	inhibition at 12 µM (NCI-H1975 [1])	inhibition at 6 µM (NCI-H1975 [2])	inhibition at 2 µM (NCI-H1975 [3])	inhibition at 12 µM (NCI-H1650 [4])	inhibition at 6 µM (NCI-H1650 [5])	inhibition at 2 µM (NCI-H1650 [6])	inhibition at 12 µM (A549 [7])	inhibition at 6 µM (A549 [8])	inhibition at 2 µM (A549 [9])	IC50 (NCI-H1975 [10])	inhibition [11]	inhibition [12]	also measured
O=C(c1cccc(CCl)c1)C(Cl)Cl	99.5%	99.3%	99%	100%	100%	97.6%	100%	99.5%	73.3%	0.2 µM	15.1%		
O=C(c1ccc(-c2ccccc2)cc1)C(Cl)Cl	99.4%	90.3%	56.3%	96.4%	79.2%	42.2%	91.2%	75.9%	22.5%	2 µM	19.7 to 67.9%	Active	
CCc1ccc(C(=O)C(Cl)Cl)cc1[N+](=O)[O-]	98.9%	93.2%	57%	100%	79.3%	35.6%	93.7%	71.4%	20.2%	1.75 µM	66.6%		inhibition (INH) [13]: Not Active; inhibition (INH) [14]: Not Active; inhibition (INH) [15]: Not Active; Kd [16]: 1.29 µM; inhibition [17]: Active; inhibition [18]: Active; inhibition [19]: Active; inhibition [20]: Active; inhibition [21]: Active; inhibition [22]: Active; inhibition [23]: inactive
CC1CCOc2ccc(C(=O)C(Cl)Cl)cc21 (stereo not given)	99.6%	98%	69.4%	94.8%	67.3%	27%	93.4%	77.7%	24.1%		19.7 to 67.9%	Active	
CC(C)c1ccc(C(=O)C(Cl)Cl)cc1[N+](=O)[O-]	99.5%	95%	59.8%	100%	90%	36.4%	96.5%	75.9%	22.7%	1.59 µM	75.1%		inhibition (INH) [13]: Not Active; inhibition (INH) [14]: Not Active; inhibition (INH) [15]: Not Active; Kd [16]: 0.97 µM; inhibition [17]: Active; inhibition [18]: Active; inhibition [19]: Active; inhibition [20]: Active; inhibition [21]: Active; inhibition [22]: Active; inhibition [23]: inactive
O=C(c1ccccc1)C(Cl)Cl	83.7%	54.3%	13.2%	47.9%	31.3%	15.3%	54.4%	28.5%	9.2%	7.9 µM	inactive	Active	inhibition (Sus scrofa [24]): inactive; inhibition (Sus scrofa [25]): 36.6%; inhibition (INH) [13]: Active; inhibition (INH) [14]: Active; inhibition (INH) [15]: Active; inhibition [26]: inactive; inhibition [27]: inactive; inhibition [28]: Active; inhibition [29]: Active; inhibition [30]: Active; inhibition [31]: Active; inhibition [32]: inactive
CCCCCOc1ccc(C(=O)C(Cl)Cl)cc1	98.5%	96.6%	57.5%	98.2%	81.5%	32.8%	85%	60.4%	20.2%		19.7 to 67.9%	Active	
O=C(c1ccc(OCCCBr)cc1)C(Cl)Cl	99.9%	99.6%	69.8%	92.5%	65.4%	27.9%	98.4%	80.1%	21.7%		19.7 to 67.9%	Active	
CCCCOc1ccc(C(=O)C(Cl)Cl)cc1	97.4%	92%	46.5%	97.6%	70.7%	30.7%	67%	46.6%	20.9%		19.7 to 67.9%	Active	
CCCOc1ccc(C(=O)C(Cl)Cl)cc1	97.7%	93%	44.3%	95.3%	66%	27.4%	79.7%	58.9%	8.4%	2 µM	19.7 to 67.9%	Active	
CC(C)c1ccc(C(=O)C(Cl)Cl)cc1	96.7%	96.1%	60.1%	91.2%	65.3%	26.6%	88.1%	65.8%	24.4%		59.9%	Active	
COc1ccc(C(=O)C(Cl)Cl)cc1Cl	99.4%	95.8%	51.7%	98.7%	78.5%	36.5%	88.4%	56.7%	17%	2 µM	47.1%	Active	
